Experimental data: US20220151993A1, “TREATMENT OF ANXIETY AND DEPRESSION” (NEW YORK UNIVERSITY, priority 2020, published 2022)

Columns and labels:
[1] = system: patients with cancer-related psychiatric and existential distress; assay: Hospital Anxiety and Depression Scale (HADS), long-term follow-up of psilocybin-assisted psychotherapy trial; format: in vivo, human; settings: for HADS Depression / HADS Anxiety / HADS Total: single 0.3 mg/kg dose with psychotherapy; for HADS Depression: baseline 5.88; for HADS Anxiety: baseline 10.56; for HADS Total: baseline 16.45
Description: (§1) The present example assesses the long-term effects of a single dose of psilocybin (0.3 mg/kg) in conjunction with psychotherapy in patients with cancer-related psychiatric and existential distress.
(§2) 29 participants were randomly assigned to one of two groups: psilocybin (0.3 mg/kg) on the first medication session followed by niacin (250 mg) on the second session (i.e. psilocybin-first group), or niacin (250 mg) on the first medication session followed by psilocybin (0.3 mg/kg) on the second session (i.e. niacin-first group). Psilocybin and niacin were administered in identically appearing gelatin capsules.
(§3) Participants received three 2-hour preparatory psychotherapy sessions in order to review the purpose and intention of participation in the study, treatment goals, and structure of the treatment sessions. Medications were administered in 8-hour treatment sessions which included a discussion of the participant's subjective experience with the treatment team to consolidate the memory of the experience and to begin the process of post-integrative psychotherapy. Participants also received three 2-hour post-medication integration sessions (repeated after the second dosing session) to further consolidate the memory of the experience and to continue the process of psychological integration. All psychotherapy treatment sessions were delivered by a dyadic therapy team trained in a blend of psychotherapies with an evidence base to support their use in cancer patients (drawing upon principles of palliative care therapy, existential psychotherapy, cognitive-behavioural therapy, psychoanalysis therapy, and transpersonal psychology) and were taught about the safety and clinical pharmacology of psilocybin. Each therapy dyad underwent six confidential one-to-one sessions to build their alliance and exchange ideas about psychedelic therapy. The trial employed a crossover design at seven weeks following the first drug administration, with an outcome assessment at 6.5 months (26 weeks) following the second drug administration (i.e. after the crossover).
(§4) Two long-term follow ups (LTFUs) were carried out to assess the continued effect of psilocybin. Of the original 29 participants, all 16 participants who were not deceased at the time of LTFU were contacted (the remaining 13 participants were deceased). Of the 16 participants who were contacted, 15 agreed to participate in the LTFU and completed measures through a secure online portal. One participant died (from cancer-related complications) after completing the first LTFU and prior to the second LTFU, leaving us with 14 participants at the second LTFU. The first and second LTFUs occurred on average 3.2 years (range 2.3-4.5 years) and 4.5 years (range 3.5-5.5 years) following the participants' psilocybin dosing date, respectively.
(§5) Primary outcomes (anxiety and depression) were measured according to the following methods: • Hospital Anxiety and Depression Scale (HADS) (Zigmond and Snaith, 1983)—this is widely used in hospital settings to screen for the severity of anxiety and depression. It contains 14 questions rated on a four-point scale (total score (HAD-T) ranges from […]). Subscale scores can be calculated for depression (HADS-D) and anxiety (HADS-A). […] The HADS has shown good reliability (Cronbach's a ranging from 0.80-0.93) and has been well validated (Herrmann, 1997). • Beck Depression Inventory-II (BDI-II) (Beck et al., 1988)—a widely used self-report screening measure for depression. The BDI-II consists of 21 questions about depressive symptoms experienced over the past two weeks rated on a […] scale (total score ranges from 0-63). Scores above 12 indicate possible clinical depression. This measure has shown good reliability (internal consistency of 0.90) and factorial validity (Storch et al. 2004). • Spielberger State-Trait Anxiety Inventory (STAI) (Spielberger, 1983)—a well-known measure of anxiety consisting of scales for state (STAI-S) and trait-level anxiety (STAI-T). […]

[2] = system: patients with cancer-related psychiatric and existential distress; assay: Beck Depression Inventory-II (BDI-II), long-term follow-up; format: in vivo, human; settings: single 0.3 mg/kg dose with psychotherapy, baseline 14.19
Description: as §1, §2
as §3, with “Each therapy dyad underwent six confidential one-to-one sessions to build their alliance and exchange ideas about psychedelic therapy. The trial employed a crossover design at seven weeks following the first drug administration, with an outcome assessment at 6.5 months (26 weeks) following the second drug administration (i.e. after the crossover).” left out
Primary outcomes (anxiety and depression) were measured according to the following methods: • Hospital Anxiety and Depression Scale (HADS) (Zigmond and Snaith, 1983)—this is widely used in hospital settings to screen for the severity of anxiety and depression. […] Subscale scores can be calculated for depression (HADS-D) and anxiety (HADS-A). […]

[3] = system: patients with cancer-related psychiatric and existential distress; assay: Demoralization Scale (DS), long-term follow-up; format: in vivo, human; settings: single 0.3 mg/kg dose with psychotherapy, baseline 31.88, p < 0.001 vs baseline
Description: as §1, §2
as §3, with “Each therapy dyad underwent six confidential one-to-one sessions to build their alliance and exchange ideas about psychedelic therapy. The trial employed a crossover design at seven weeks following the first drug administration, with an outcome assessment at 6.5 months (26 weeks) following the second drug administration (i.e. after the crossover).” left out
Cancer-related existential distress (demoralization, hopelessness, attitudes and effects associated with disease progression and death) was assessed using the following methods: • The Death Anxiety Scale (DAS) (Templer, 1970)—a 15-item measure that has been used most frequently to assess death anxiety. Items are scored “true” and “false” and then scored as one and zero, respectively. […]

[4] = system: patients with cancer-related psychiatric and existential distress; assay: Primary outcome measures (anxiety and depression) combined: effect sizes, clinical response and remission rates; format: in vivo, human
Description: as §1, §2, §3, §4, §5

[5] = system: patients with advanced-stage cancer; settings: single moderate dose 0.2 mg/kg; cited from earlier work
[6] = mean score at 3.2 years, p < 0.001 vs baseline
[7] = mean score at 4.5 years, p < 0.001 vs baseline
[8] = mean score at 6.5-8 months, p < 0.001 vs baseline
[9] = second LTFU point (mean 4.5 years)

Q: Which “correlation (r) of length of time between psilocybin session and follow-up with HAD-D depression change score” value ([1]; Spearman, second LTFU subtracted from two-weeks post-psilocybin dose scores, p<0.01) does the source give for `CN(C)CCc1c[nH]c2cccc(OP(=O)(O)O)c12` [psilocybin, [3-(2-dimethylaminoethyl)-1H-indol-4-yl] dihydrogen phosphate] here?
A: 0.70

Q: What about the “HADS Depression” value [1, 6] of the same molecule?
A: 2.25

Q: What about the “HADS Anxiety” value [1, 6] of the same molecule?
A: 5.50

Q: What about the “HADS Total” value [1, 6] of the same molecule?
A: 7.13

Q: And the “HADS Depression” value ([1]; mean score at 4.5 years, p < 0.01 vs baseline)?
A: 2.30

Q: What about the “HADS Anxiety” value [1, 7] of the same molecule?
A: 4.99

Q: What about the “HADS Total” value [1, 7] of the same molecule?
A: 7.34

Q: What about the “HADS Depression” value [1, 8] of the same molecule?
A: 1.75

Q: What about the “HADS Anxiety” value [1, 8] of the same molecule?
A: 2.81

Q: What about the “HADS Total” value [1, 8] of the same molecule?
A: 4.38

Q: And the “participants with clinically significant reductions in global psychological distress on the HADS-T” value ([1]; second LTFU point (4.5 years, n=14), 50% or greater reduction relative to baseline)?
A: Seventy-one

Q: And the “participants with clinically significant anxiolytic response on the HADS-A” value ([1]; second LTFU point (4.5 years, n=14), response = 50% or greater reduction relative to baseline)?
A: 57%

Q: And the “Beck Depression” value ([2]; mean score at 3.2 years, p < 0.01 vs baseline)?
A: 7.75

Q: And the “Beck Depression” value [2, 7]?
A: 5.45

Q: And the “Beck Depression” value [2, 8]?
A: 5.09

Q: And the Demoralization ([3]; mean score at 3.2 years)?
A: 13.29

Q: And the Demoralization ([3]; mean score at 4.5 years)?
A: 14.32

Q: And the Demoralization ([3]; mean score at 6.5-8 months)?
A: 16.84

Q: What about the “participants meeting criteria for clinical antidepressant or anxiolytic response and remission” value ([4]; 4.5 year time point) of the same molecule?
A: 60-80%

Q: And the “mean Cohen's d, reductions in symptoms since baseline on primary measures (anxiety and depression)” value (from here on “mean Cohen's d, reductions”) ([4]; 6.5-month point)?
A: 1.90

Q: And the “range of Cohen's d, primary measures (anxiety and depression)” value (shortened to “range of Cohen's d, primary measures”) ([4]; 6.5-month point)?
A: 1.27-2.67

Q: What about the “participants meeting criteria for clinical antidepressant or anxiolytic response and remission” value ([4]; 6.5 months after psilocybin administration) of the same molecule?
A: 60-80%

Q: And the “mean Cohen's d, reductions” value ([4]; first LTFU (mean 3.2 years))?
A: 1.30

Q: And the “range of Cohen's d, primary measures” value ([4]; first LTFU (mean 3.2 years))?
A: 0.93-1.97

Q: And the “depression symptom remission rates” value ([4]; second LTFU (4.5 years, n=14), 50% or greater reduction plus HADS-D≤7 or BDI≤12)?
A: 50-79%

Q: And the “percentages of clinical responses for depression on the HADS-D and BDI” value ([4]; second LTFU (4.5 years, n=14), 50% or greater reduction relative to baseline)?
A: 57-79%

Q: What about the “mean Cohen's d, reductions” value [4, 9] of the same molecule?
A: 1.41

Q: And the “range of Cohen's d, primary measures” value [4, 9]?
A: 0.86-1.89

Q: What about the adverse events [5] of the same molecule?
A: no clinically significant adverse events

Q: What about the “time after treatment up to which levels of anxiety were reduced” value [5] of the same molecule?
A: up to 3 months

Q: What about the “time after treatment up to which levels of depression were reduced” value [5] of the same molecule?
A: up to 6 months
